Data published in patent US7956053B2, “Inhibitors of tyrosine kinases” (Novartis AG, priority 2002, dated 2011).

What was measured:
[1] = target: T1, c-Abl (Homo sapiens, UniProt P00519); assay: Test for activity against c-Abl protein tyrosine kinase (filter binding assay); type: biochemical
T1 construct: The His-tagged kinase domain of c-Abl is cloned and expressed in the baculovirus/Sf9 system; His; made in house; host or cells: baculovirus/Sf9
T1 sequence (P00519 242-493 limits assumed): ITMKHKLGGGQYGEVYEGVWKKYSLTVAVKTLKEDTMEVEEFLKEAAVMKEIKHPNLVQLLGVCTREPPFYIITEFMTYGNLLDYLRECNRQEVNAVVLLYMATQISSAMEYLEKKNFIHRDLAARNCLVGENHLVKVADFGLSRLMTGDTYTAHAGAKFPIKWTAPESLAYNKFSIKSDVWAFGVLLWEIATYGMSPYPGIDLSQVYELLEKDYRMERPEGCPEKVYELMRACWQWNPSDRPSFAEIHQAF
Procedure: Test for activity against c-Abl protein tyrosine kinase. The test is conducted as a filter binding assay as follows: The His-tagged kinase domain of c-Abl is cloned and expressed in the baculovirus/Sf9 system as described by Bhat et al., J Biol. Chem. 272, 16170-5 (1997). A protein of 37 kD (c-Abl kinase) is purified by a two-step procedure over a Cobalt metal chelate column followed by an anion exchange column with a yield of 1-2 mg/L of Sf9 cells. The purity of the c-Abl kinase is >90% as judged by SDS-PAGE after Coomassie blue staining. The assay contains: c-Abl kinase (50 ng), 20 mM Tris.HCl, pH 7.5, 10 mM MgCl2, 10 μM Na3VO4, 1 mM DTT and 0.06 μCi/assay [γ^33 P]-ATP (5 μM ATP) using 30 μg/mL poly-Ala,Glu,Lys,Tyr-6:2:5:1 (Poly-AEKY, Sigma P1152) in the presence of 1% DMSO, total volume of 30 μL. Reactions are terminated by adding 10 μL of 250 mM EDTA, and 30 μL of the reaction mixture is transferred onto Immobilon-PVDF membrane (Millipore, Bedford, Mass., USA) previously soaked for 5 min with methanol, rinsed with water, then soaked for 5 min with 0.5% H3PO4 and mounted on vacuum manifold with disconnected vacuum source. After spotting all samples, vacuum is connected and each well rinsed with 200 μL 0.5% H3PO4. Membranes are removed and washed on a shaker with 0.5% H3PO4 (4 times) and once with ethanol. Membranes are counted after drying at ambient temperature, mounting in Packard TopCount 96-well frame, and addition of 10 μL/well of Microscint™ (Packard).
(§1) Enzymatic (c-Abl, KDR, Flt3) in vitro inhibition data are presented as % inhibition at 10 μM. The measurements are made as described above in the general description.

[2] = target: KDR (Homo sapiens, UniProt P35968); assay: Enzymatic KDR in vitro inhibition; type: biochemical
Procedure: Test for activity against VEGF-receptor tyrosine kinase. The test is conducted using Flt-1 VEGF-receptor tyrosine kinase. The detailed procedure is as follows: 30 μL kinase solution (10 ng of the kinase domain of Flt-1, Shibuya et al., Oncogene 5, 519-24 [1990]) in 20 mM Tris.HCl pH 7.5, 3 mM manganese dichloride (MnCl2), 3 mM magnesium chloride (MgCl2), 10 μM sodium vanadate, 0.25 mg/mL polyethylenglycol (PEG) 20000, 1 mM dithiothreitol and 3 μg/μL poly(Glu,Tyr) 4:1 (Sigma, Buchs, Switzerland), 8 μM [^33P]-ATP (0.2 μCi), 1% DMSO, and 0 to 100 μM of the compound to be tested are incubated together for 10 minutes at room temperature. The reaction is then terminated by the addition of 10 μL 0.25 M ethylenediaminetetraacetate (EDTA) pH 7. Using a multichannel dispenser (LAB SYSTEMS, USA), an aliquot of 20 μL is applied to a PVDF (=polyvinyl difluoride) Immobilon P membrane (Millipore, Bedford, USA), through a Gibco-BRL microtiter filter manifold and connected to a vacuum. Following complete elimination of the liquid, the membrane is washed 4 times successively in a bath containing 0.5% phosphoric acid (H3PO4) and once with ethanol, incubated for 10 minutes each time while shaking, then mounted in a Hewlett Packard TopCount Manifold and the radioactivity measured after the addition of 10 μL Microscint® (β-scintillation counter liquid). IC50-values are determined by linear regression analysis of the percentages for the inhibition of each compound in at least four concentrations (as a rule 0.01, 0.1, 1.0 and 10 μmol).
as §1

Chain of KDR (P35968 20-1356): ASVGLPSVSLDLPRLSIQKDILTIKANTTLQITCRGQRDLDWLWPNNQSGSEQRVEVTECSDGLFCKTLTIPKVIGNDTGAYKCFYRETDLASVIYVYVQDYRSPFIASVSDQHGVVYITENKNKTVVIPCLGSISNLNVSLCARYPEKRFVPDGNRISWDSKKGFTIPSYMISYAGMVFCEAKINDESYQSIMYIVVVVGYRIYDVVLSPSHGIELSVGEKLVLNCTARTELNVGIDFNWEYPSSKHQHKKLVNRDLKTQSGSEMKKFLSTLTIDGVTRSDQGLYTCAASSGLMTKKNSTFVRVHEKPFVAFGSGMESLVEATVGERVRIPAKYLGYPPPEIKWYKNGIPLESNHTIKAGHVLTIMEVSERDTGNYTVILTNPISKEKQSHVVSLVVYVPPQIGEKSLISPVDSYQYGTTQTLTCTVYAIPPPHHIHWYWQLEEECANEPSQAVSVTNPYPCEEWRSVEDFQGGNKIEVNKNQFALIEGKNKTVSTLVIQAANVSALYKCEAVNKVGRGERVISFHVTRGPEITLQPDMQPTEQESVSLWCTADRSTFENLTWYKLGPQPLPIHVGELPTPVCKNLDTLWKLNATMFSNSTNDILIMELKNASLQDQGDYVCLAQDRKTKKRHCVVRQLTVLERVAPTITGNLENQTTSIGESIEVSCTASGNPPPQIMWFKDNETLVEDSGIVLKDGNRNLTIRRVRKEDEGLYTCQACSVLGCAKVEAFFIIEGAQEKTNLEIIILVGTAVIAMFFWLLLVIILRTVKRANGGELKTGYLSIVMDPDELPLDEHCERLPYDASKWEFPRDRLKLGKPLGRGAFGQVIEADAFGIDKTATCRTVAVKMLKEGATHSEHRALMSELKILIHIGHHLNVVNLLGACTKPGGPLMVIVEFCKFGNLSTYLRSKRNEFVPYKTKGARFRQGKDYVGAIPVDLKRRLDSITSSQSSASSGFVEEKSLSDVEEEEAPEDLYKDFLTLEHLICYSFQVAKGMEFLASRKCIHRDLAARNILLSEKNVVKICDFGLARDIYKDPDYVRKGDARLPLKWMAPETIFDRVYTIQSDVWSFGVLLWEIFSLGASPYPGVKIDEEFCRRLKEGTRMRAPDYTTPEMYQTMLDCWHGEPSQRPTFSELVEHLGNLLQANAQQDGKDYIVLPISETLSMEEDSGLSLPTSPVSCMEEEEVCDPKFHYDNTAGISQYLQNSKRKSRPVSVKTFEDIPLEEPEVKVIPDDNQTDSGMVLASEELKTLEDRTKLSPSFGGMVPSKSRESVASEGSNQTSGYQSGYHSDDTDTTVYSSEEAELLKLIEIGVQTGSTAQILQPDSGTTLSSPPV

inhibition at 10 µM [1] | inhibition at 10 µM [2] | SMILES
39% | 74% | CCOC(=O)CN(Cc1ccccc1)C(=O)c1ccc(C)c(Nc2nccc(-c3cccnc3)n2)c1 [Example 47, N-[4-Methyl-3-[[4-(3-pyridinyl)-2-pyrimidinyl]amino]benzoyl]-N-(phenylmethyl)-glycine ethyl ester]
49% | 54% | Cc1ccc(C(=O)N[C@H]2CCCCNC2=O)cc1Nc1nccc(-c2cccnc2)n1 [Example 14, N-[(3S)-Hexahydro-2-oxo-1H-azepin-3-yl]-4-methyl-3-[[4-(3-pyridinyl)-2-pyrimidinyl]amino]benzamide]
80% | 70% | Cc1ccc(C(=O)NCc2ccc(S(C)(=O)=O)cc2)cc1Nc1nccc(-c2cccnc2)n1 [Example 24, 4-Methyl-N-[4-(methylsulfonyl)benzyl]-3-[[4-(3-pyridinyl)-2-pyrimidinyl]amino]benzamide]
59% | 44% | CCOC(=O)Cc1ccc(NC(=O)c2ccc(C)c(Nc3nccc(-c4cccnc4)n3)c2)cc1 [Example 62, 4-[[4-Methyl-3-[[4-(3-pyridinyl)-2-pyrimidinyl]amino]benzoyl]amino]benzene-acetic acid ethyl ester]
72% | 45% | Cc1ccc(C(=O)NCCc2cccn2C)cc1Nc1nccc(-c2cccnc2)n1 [Example 7, 4-Methyl-N-[2-(1-methyl-1H-pyrrol-2-yl)ethyl]-3-[[4-(3-pyridinyl)-2-pyrimidinyl]amino]benzamide]
30% | 93% | Cc1ccc(C(=O)N(C)Cc2ccccc2)cc1Nc1nccc(-c2cccnc2)n1 [Example 21, N,4-Dimethyl-N-(phenylmethyl)-3-[[4-(3-pyridinyl)-2-pyrimidinyl]amino]-benzamide]
41% | 33% | COCCNC(=O)c1ccc(C)c(Nc2nccc(-c3cccnc3)n2)c1 [Example 19, N-(2-methoxyethyl)-4-methyl-3-[[4-(3-pyridinyl)-2-pyrimidinyl]amino]benzamide]
53% | 41% | Cc1ccc(C(=O)NCC2CCCO2)cc1Nc1nccc(-c2cccnc2)n1 (stereo not shown) [Example 11, 4-Methyl-3-[[4-(3-pyridinyl)-2-pyrimidinyl]amino]-N-[(tetrahydro-2-furanyl)methyl]benzamide]
88% | 79% | Cc1ccc(C(=O)Nc2cccc3c2CCCC3)cc1Nc1nccc(-c2cccnc2)n1 [Example 53, 4-Methyl-3-[[4-(3-pyridinyl)-2-pyrimidinyl]amino]-N-(5,6,7,8-tetrahydro-1-naphthalenyl)benzamide]
90% | 37% | Cc1ccc(C(=O)N[C@@H](Cc2ccccc2)C(=O)OC(C)(C)C)cc1Nc1nccc(-c2cccnc2)n1 [Example 32, N-[4-Methyl-3-[[4-(3-pyridinyl)-2-pyrimidinyl]amino]benzoyl]-(L)-phenylalanine 1,1-dimethylethyl ester]
87% | 83% | Cc1ccc(C(=O)NC2CCc3ccccc32)cc1Nc1nccc(-c2cccnc2)n1 (stereo not shown) [Example 50, N-(2,3-Dihydro-1H-inden-1-yl)-4-methyl-3-[[4-(3-pyridinyl)-2-pyrimidinyl]amino]benzamide]
78% | – | Cc1ccc(C(=O)NCc2ccc(S(N)(=O)=O)cc2)cc1Nc1nccc(-c2cccnc2)n1 [Example 29, N-[[4-(Aminosulfonyl)phenyl]methyl]-4-methyl-3-[[4-(3-pyridinyl)-2-pyrimidinyl]amino]benzamide]
59% | 7% | CC(=O)Nc1ccc(NC(=O)c2ccc(C)c(Nc3nccc(-c4cccnc4)n3)c2)cc1 [Example 22, N-[4-(Acetylamino)phenyl]-4-methyl-3-[[4-(3-pyridinyl)-2-pyrimidinyl]amino]benzamide]
90% | 50% | Cc1ccc(C(=O)Nc2cccc(Cl)c2)cc1Nc1nccc(-c2cccnc2)n1 [Example 48, N-(3-Chlorophenyl)-4-methyl-3-[[4-(3-pyridinyl)-2-pyrimidinyl]amino]benzamide]
51% | 56% | Cc1ccc(C(=O)NCc2ccncc2)cc1Nc1nccc(-c2cccnc2)n1 [Example 6, 4-Methyl-N-(4-pyridinylmethyl)-3-[[4-(3-pyridinyl)-2-pyrimidinyl]amino]benzamide]

Further lines, the compound ahead of its results:

SMILES | inhibition at 10 µM [1] | inhibition at 10 µM [2]
COC(=O)CNC(=O)c1ccc(C)c(Nc2nccc(-c3cccnc3)n2)c1 [Example 27, N-[4-Methyl-3-[[4-(3-pyridinyl)-2-pyrimidinyl]amino]benzoyl]glycine methyl ester] | 54% | 51%
Cc1ccc(C(=O)NCCCn2ccnc2)cc1Nc1nccc(-c2cccnc2)n1 [Example 17, N-[3-(1H-Imidazol-1-yl)propyl]-4-methyl-3-[[4-(3-pyridinyl)-2pyrimidinyl]amino]benzamide] | 54% | 62%
COC(=O)CCNC(=O)c1ccc(C)c(Nc2nccc(-c3cccnc3)n2)c1 [Example 28, N-[4-Methyl-3-[[4-(3-pyridinyl)-2-pyrimidinyl]amino]benzoyl]beta-alanine methyl ester] | 73% | 61%
Cc1ccc(C(=O)N2CCN(C3CCCC3)CC2)cc1Nc1nccc(-c2cccnc2)n1 [Example 40, 1-Cyclopentyl-4-[4-methyl-3-[[4-(3-pyridinyl)-2-pyrimidinyl]amino]benzoyl]piperazine] | 65% | 78%
Cc1ccc(C(=O)NCCN2CCCCC2)cc1Nc1nccc(-c2cccnc2)n1 [Example 52, 4-Methyl-N-[2-(1-piperidinyl)ethyl]-3-[[4-(3-pyridinyl)-2-pyrimidinyl]amino]benzamide] | 78% | 37%
Cc1ccc(C(=O)N2CCN(c3ccncc3)CC2)cc1Nc1nccc(-c2cccnc2)n1 [Example 37, 1-[4-Methyl-3-[[4-(3-pyridinyl)-2-pyrimidinyl]amino]benzoyl]-4-(4-pyridinyl)-piperazine] | 28% | 82%
Cc1ccc(C(=O)N2CCN(c3cnccn3)CC2)cc1Nc1nccc(-c2cccnc2)n1 [Example 38, 1-[4-Methyl-3-[[4-(3-pyridinyl)-2-pyrimidinyl]amino]benzoyl]-4-(pyrazinyl)-piperazine] | 74% | 91%
Cc1ccc(C(=O)N2CCC(N3CCCCC3)CC2)cc1Nc1nccc(-c2cccnc2)n1 [Example 46, 1′-[4-Methyl-3-[[4-(3-pyridinyl)-2-pyrimidinyl]amino]benzoyl]-1,4′-bipiperidine] | 1% | 43%
CCOC(=O)C(NC(=O)c1ccc(C)c(Nc2nccc(-c3cccnc3)n2)c1)C(=O)OCC [Example 65, [[4-Methyl-3-[[4-(3-pyridinyl)-2-pyrimidinyl]amino]benzoyl]amino]propanedioic acid diethyl ester] | 96% | 60%
Cc1ccc(C(=O)N2CCOCC2)cc1Nc1nccc(-c2cccnc2)n1 [Example 35, 4-[4-Methyl-3-[[4-(3-pyridinyl)-2-pyrimidinyl]amino]benzoyl]-morpholine] | 27% | 47%
